Assay: Stain removal study on stained hydroxyapatite (HAP) disks, CIELAB ΔE
Settings: test solution in artificial human saliva, one hour treatment, 15 ml/min, 37° C.; FIG. 2
Method: A flow system was assembled for staining samples of hydroxyapatite (HAP) disks using a staining solution. The staining solution was prepared from a mixture containing tea, coffee and porcine gastric mucin. The staining solution was circulated through the flow system at a rate of about 15 ml/min, and passed continuously over the HAP disks for about 96 hours at about 37° C. After 96 hours, the stained HAP disks were then placed in artificial human saliva (as prepared in Example 5) at a pH of about 7, and were then rinsed and allowed to dry. The HAP disks were segregated into 6 sample groups. Each of the HAP disks were measured to yield a baseline L*a*b stain score in accordance with the Commission International de L'Eclairage Laboratory (CIELAB) color scale. The CIELAB scale quantifies color according to 3 parameters, L* (lightness-darkness scale), a* (red-green chroma), and b* (yellow-blue chroma). In order to obtain reproducible readings, the stained HAP disks were allowed to air-dry at room temperature for about 2 hours before measurement is to be made. The baseline stain measurements were taken by making diffuse reflectance absorbance readings with a Minolta spectrophotometer. The absorbance readings over the entire visible color spectrum were obtained for each HAP disk. […] The overall change in stain level ΔE was determined for each of the treated HAP disks.

SMILES: CCCCCCCCCCCCCCCCCC(=O)[O-].[Na+] [sodium stearate]
- stain removing activity (ΔE): least stain removing activity

SMILES: OC[C@H]1O[C@@H]2O[C@H]3[C@H](O)[C@@H](O)[C@@H](O[C@H]4[C@H](O)[C@@H](O)[C@@H](O[C@H]5[C@H](O)[C@@H](O)[C@@H](O[C@H]6[C@H](O)[C@@H](O)[C@@H](O[C@H]7[C@H](O)[C@@H](O)[C@@H](O[C@H]8[C@H](O)[C@@H](O)[C@@H](O[C@H]1[C@H](O)[C@H]2O)O[C@@H]8CO)O[C@@H]7CO)O[C@@H]6CO)O[C@@H]5CO)O[C@@H]4CO)O[C@@H]3CO [β-cyclodextrin]
- stain removing activity (ΔE): least stain removing activity

From patent US7641927B2, “Chewing gum and confectionery compositions containing a stain removing complex, and methods of making and using the same” (Cadbury Adams USA, LLC, priority 2006, dated 2010)
